Key:
MOLM-13 = assay: Cell viability assay (CellTiter-Blue), MOLM-13; type: cell-based; conditions: Homo sapiens; MOLM-13 cells; cell proliferation/viability; read-out: IC50 MOLM-13 μM (myeloma)
Description: (§1) The representative compounds of the invention are also screened as regards their effects on cell proliferation and viability using a variety of human tumour cell lines, which are representative of various pathological indications. These cell lines include: • Models of haematological cancers: • TF-1 (acute myelogenic leukaemia; AML M6 at the time of diagnosis); • KG-1 (AML; erythroleukaemia evolving into AML); • KG-1a (AML; sub-clone derived from immature KG-1); • EOL-1 (AML; eosinophilic leukaemia); • PL-21 (AML; M3); • ML-2 (AML; T-NHL evolving into T-ALL evolving into AML M4); • HL-60 (AML, M3); • Kasumi-1 (AML); • GDM-1 (AML); • K-562 (CML—chronic myelogenic leukaemia; blastic crisis); • JURL-MK1 (CML; blastic crisis); • DND-41 (T-ALL—-cell acute lymphoblastic leukaemia); • Jurkat (T-ALL); NALM-6 (B-ALL—B-cell ALL); • CEM (ALL; lymphosarcoma evolving into ALL); • Jeko-1 (B-NHL—B-cell non-Hodgkin lymphoma; mantle-cell lymphoma derived from a variant with large cells as a leukaemic transformation); • WSU-DLCL2 (B-NHL; large B-cell diffuse lymphoma); • RL (B-NHL; undifferentiated diffuse); • OCI-Ly10 (B-NHL); • DoHH-2 (B-NHL); • RPMI-8226 (MM—multiple myeloma); • JVM-2 (B-CLL—B-cell chronic lymphocytic leukaemia); and • JVM-3 (B-CLL) • MV4-11 (AML) • MOLM13 (AML). • Solid tumour models: • HCT-116 (bowel cancer); • HT-29 (bowel cancer); • HC-15 (bowel cancer); • H460 (lung cancer; non-small-cell lung cancer); • A375 (melanoma); • B16F10 (melanoma); • MDA-A1 (breast cancer); • MDA-MB231 (breast cancer); • MDA-MB231 adr (breast cancer); • PANC-1 (pancreatic cancer); and • PC-3 (prostate cancer).
(§2) In order to measure the viability, the tumour cells are incubated in a 96-well or 384-well format for 48, 72 or 96 hours, preferably 72 hours, with a compound of the invention at dilutions of a factor 3 with, in general, nine doses in total, the highest dose being equal to 10 μM or 30 μM. The cell viability is evaluated by adding CellTiter-Blue® (Promega, Madison, Wis., United States) for 4 hours and end-point readings are taken using a SpectraMax Genmini EM (Molecular Devices, Sunnyvale, Calif., United States). The CellTiter-Blue® cell viability assay measures the ability of the cells in culture to reduce resazurin to resorufin, the fluorescence signal intensity being directly proportional to the number of live cells.

MV4-11 = assay: Cell viability assay (CellTiter-Blue), MV4-11; type: cell-based; conditions: Homo sapiens; MV4-11 cells; cell proliferation/viability; read-out: IC50 MV4-11 μM (myeloma)
Description: as §1, §2

Pim-3 = molecular target: T1, Pim-3 (Homo sapiens, UniProt Q86V86); assay: TR-FRET assay, Pim-3 kinase (phosphorylation of Bad Ser112); type: biochemical; conditions: TR-FRET; ATP 40 μM; read-out: IC50 Pim3
T1 construct: His6-labelled recombinant full-length human Pim-1, Pim-2 or Pim-3 protein; His6; made in house
Method in brief: (§3)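 For each of Pim-1, Pim-2 and Pim-3 (His6-tagged full-length human), compounds were titrated over 10 concentrations in duplicate, typically from 30 μM, with ATP at 40 μM, equal to apparent KM. Bad Ser112 phosphorylation was read as the 665/615 nm TR-FRET ratio and IC50 fitted by 4-parameter logistic model.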

PLK1 = PLK1 (Homo sapiens, UniProt P53350); assay: PLK1 biochemical inhibition
EOL-1 = assay: Cell viability assay (CellTiter-Blue), EOL-1; type: cell-based; conditions: Homo sapiens, EOL1, read-out: EC50 EOL-1 μM (lymphoma); EOL-1 cells; cell proliferation/viability
Description: as §1, §2

Pim-2 = molecular target: T2, Pim-2 (Homo sapiens, UniProt Q9P1W9); assay: TR-FRET assay, Pim-2 kinase (phosphorylation of Bad Ser112); type: biochemical; conditions: TR-FRET; ATP 40 μM; read-out: IC50 Pim2
T2 construct: His6-labelled recombinant full-length human Pim-1, Pim-2 or Pim-3 protein; His6; made in house
Method in brief: as §3

Pim-1 = molecular target: T3, Pim-1 (Homo sapiens, UniProt P11309); assay: TR-FRET assay, Pim-1 kinase (phosphorylation of Bad Ser112); type: biochemical; conditions: TR-FRET; ATP 40 μM; read-out: IC50 Pim1
T3 construct: His6-labelled recombinant full-length human Pim-1, Pim-2 or Pim-3 protein; His6; made in house
Method in brief: as §3

T2 sequence (Q9P1W9 whole entry): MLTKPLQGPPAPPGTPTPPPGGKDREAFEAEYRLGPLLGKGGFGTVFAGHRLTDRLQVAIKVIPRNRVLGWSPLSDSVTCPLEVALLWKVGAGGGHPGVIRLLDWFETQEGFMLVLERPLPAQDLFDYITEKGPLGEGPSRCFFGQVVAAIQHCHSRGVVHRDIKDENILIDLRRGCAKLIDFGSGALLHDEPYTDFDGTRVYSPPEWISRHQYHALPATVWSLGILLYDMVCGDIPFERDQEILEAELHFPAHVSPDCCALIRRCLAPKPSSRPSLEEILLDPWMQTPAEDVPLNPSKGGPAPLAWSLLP
PLK1, sequence (P53350 whole entry, species assumed): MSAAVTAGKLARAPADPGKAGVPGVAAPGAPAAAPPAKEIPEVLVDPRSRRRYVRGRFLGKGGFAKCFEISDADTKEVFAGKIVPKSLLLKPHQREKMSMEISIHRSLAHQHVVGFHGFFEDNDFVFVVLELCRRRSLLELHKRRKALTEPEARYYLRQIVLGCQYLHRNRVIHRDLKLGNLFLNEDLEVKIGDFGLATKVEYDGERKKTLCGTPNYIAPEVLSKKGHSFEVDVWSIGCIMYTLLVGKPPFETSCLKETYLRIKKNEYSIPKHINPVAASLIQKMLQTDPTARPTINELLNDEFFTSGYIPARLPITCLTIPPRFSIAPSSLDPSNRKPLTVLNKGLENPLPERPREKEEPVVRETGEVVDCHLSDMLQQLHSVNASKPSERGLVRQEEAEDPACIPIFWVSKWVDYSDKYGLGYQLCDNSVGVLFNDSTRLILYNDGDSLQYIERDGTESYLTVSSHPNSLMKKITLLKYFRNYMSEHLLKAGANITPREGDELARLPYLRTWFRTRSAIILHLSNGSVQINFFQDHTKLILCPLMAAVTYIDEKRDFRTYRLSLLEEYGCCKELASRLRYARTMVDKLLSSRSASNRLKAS
T3 sequence (P11309 whole entry): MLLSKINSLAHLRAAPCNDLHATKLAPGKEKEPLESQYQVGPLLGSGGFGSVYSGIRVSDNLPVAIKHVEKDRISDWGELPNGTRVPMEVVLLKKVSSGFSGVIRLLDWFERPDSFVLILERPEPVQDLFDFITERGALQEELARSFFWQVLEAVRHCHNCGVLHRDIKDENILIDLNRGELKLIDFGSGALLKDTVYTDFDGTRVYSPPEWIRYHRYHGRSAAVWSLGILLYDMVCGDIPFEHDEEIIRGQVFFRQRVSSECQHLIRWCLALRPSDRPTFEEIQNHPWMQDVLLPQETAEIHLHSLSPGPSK

Row | Structure (SMILES) | IC50 (MOLM-13) [nM] | IC50 (MV4-11) [nM] | IC50 (Pim-3) [nM] | IC50 (PLK1) [nM] | EC50 (EOL-1) [nM] | IC50 (Pim-2) [nM] | IC50 (Pim-1) [nM]
1 | CCN(CC)CCOc1ccc(-c2c(F)cnc3[nH]c4cnc(-c5cccnc5)cc4c23)cc1 [Example 100, N,N-diethyl-2-{4-[3-fluoro-6-(pyrid-3-yl)-9H-pyrrolo[2,3-b:5,4-c′]dipyrid-4-yl]-phenoxy}ethanamine] | 100 to 1000 | 100 to 1000 | 1 to 100 | 1 to 100 | 1 to 100 | 100 to 1000 | 1 to 100
2 | CCN(CC)C(=O)c1cccc(-c2cnc3[nH]c4cnc(-c5cccnc5)cc4c3c2)c1 [Example 119, N,N-diethyl-3-[6-(pyrid-3-yl)-9H-pyrrolo[2,3-b:5,4-c′]dipyrid-3-yl]-benzamide] | 100 to 1000 | 100 to 1000 | 1 to 100 | 100 to 1000 | 1 to 100 | 100 to 1000 | 1 to 100
3 | Cc1n[nH]c(C)c1-c1cnc2[nH]c3cnc(-c4cccnc4)cc3c2c1 [Example 120, 3-(3,5-dimethyl-1H-pyrazol-4-yl)-6-(pyrid-3-yl)-9H-pyrrolo[2,3-b:5,4-c′]-dipyridine] | 100 to 1000 | 1 to 100 | 1 to 100 | 100 to 1000 | 1 to 100 | > 5000 | 1 to 100
4 | CC(C)N1CCN(c2ccc(-c3cnc4[nH]c5cnc(-c6cccnc6)cc5c4c3)cc2)CC1 [Example 122, 3-{4-[4-(propan-2-yl)piperazin-1-yl]phenyl}-6-(pyrid-3-yl)-9H-pyrrolo[2,3-b:5,4-c′]-dipyridine] |  | 1 to 100 | 1 to 100 | 1000 to 5000 | 1 to 100 | 100 to 1000 | 1 to 100
5 | CCN(CC)CCCn1cc(-c2cnc3[nH]c4cnc(-c5cccnc5)cc4c3c2)cn1 [Example 127, N,N-diethyl-3-{4-[6-(pyrid-3-yl)-9H-pyrrolo-[2,3-b:5,4-c′]-dipyrid-3-yl]-1H-pyrazol-1-yl}-propan-l-amine] |  | 1 to 100 | 1 to 100 | 1000 to 5000 | 1 to 100 | 100 to 1000 | 1 to 100
6 | CCN1CCCC1Cn1cc(-c2cnc3[nH]c4cnc(-c5cccnc5)cc4c3c2)cn1 (stereo not shown) [Example 128, 3-{1-[(1-ethylpyrrolidin-2-yl)methyl]-1H-pyrazol-4-yl}-6-(pyrid-3-yl)-9H-pyrrolo[2,3-b:5,4-c′]dipyridine] | 1 to 100 | 1 to 100 |  |  | 1 to 100 |  | 
7 | c1cncc(-c2cc3c(cn2)[nH]c2ncc(-c4ccc(N5CCNCC5)cc4)cc23)c1 [Example 130, 3-[4-(piperazin-1-yl)phenyl]-6-(pyrid-3-yl)-9H-pyrrolo[2,3-b:5,4-c′]dipyridine] | 1 to 100 | 1 to 100 | 1 to 100 |  | 1 to 100 | 100 to 1000 | 1 to 100
8 | COc1cnc2[nH]c3cnc(-c4cnn(C)c4)cc3c2c1 [Example 163, 3-methoxy-6-(1-methyl-1H-pyrazol-4-yl)-9H-pyrrolo[2,3-b:5,4-c′]dipyridine] |  | 100 to 1000 | 1 to 100 | 1000 to 5000 | 100 to 1000 | 100 to 1000 | 1 to 100
9 | COc1cnc2[nH]c3cnc(-c4cnn(CCCCCNC(=O)OC(C)(C)C)c4)cc3c2c1 [Example 167, 2-methyl-2-propyl {5-[4-(3-methoxy-9H-pyrrolo[2,3-b:5,4-c′]dipyrid-6-yl)-1H-pyrazol-1-yl]pentyl}carbamate] |  |  | 100 to 1000 | > 5000 |  | 1000 to 5000 | 100 to 1000
